The values below come from patent US20220151229A1, “Synergistic Herbicidal Combinations” (Clariant International Ltd., priority 2019, published 2022).

What all share (format): in vivo
The subject of one assay is Sectaria Viridis - SETVI. As to the kind of experiment: Greenhouse post-emergence herbicide trial, Sectaria Viridis. The settings on record: 200 L/ha, Nicosulfuron 40 g Al/ha. The source says:
(§1) Standard post emergence herbicide application procedures were used, as described below, to apply inventive compounds in combination with sulfonylurea herbicides.
(§2) Seed of monocotyledonous and dicotyledonous harmful plants such as Brassica napus (BRSNW) Abutilon theophrasti (ABUTH), Alopecurus myosuroides (ALOMY), Amaranthus retroflexus (AMARE), Digitaria Sanguinalis (DIGSA), Echinochloa crus-galli (ECHCG), Erigeron canadensis (ERICA), Galium aparine (GALAP), Lolium perenne (LOLPE), Sectaria viridis (SETVI), Solanun nigrum (SOLNI), Viola arvensis (VIOAR) were sowed in 18 cm^2 pots. The plants were placed in a greenhouse under controlled environmental conditions, and sub-irrigation. About one week after emergence, seedlings were thinned as needed, including removal of any unhealthy or abnormal plants, to create a uniform series of test pots.
(§3) The plants were maintained for the duration of the test in the greenhouse, where they received a mean of 70 μmol m-2 s-1 of light per day/night. Temperatures averages about 24° C. during the day and about 20° C. during the night. Plants were sub-irrigated throughout the test to ensure adequate soil moisture levels.
(§4) Pots were assigned to different treatment in a randomized experimental design. A set of pots was left untreated as a reference against which effects of the treatments could later be evaluated. Application of tested formulations was made in a spray cabin model 01S-15E designed by CheckTec using the following parameters: • Two edge nozzle Lechler OC2, 200 L/ha, 3 bars. • Two edge nozzle Lechler OC3, 500 L/ha, 3 bars.
(§5) The distance of the nozzle from the plants was between 50 to 53 cm. and the nozzle spacing was 50 cm.
(§6) After treatment, pots were returned to the greenhouse until ready for evaluation. Evaluations were performed at different times after application (DAT: days after treatment), depending on the experiment.
(§7) For evaluation of herbicidal effectiveness, all plants in the test were examined by a single technician, who recorded percent control, a visual measurement of the effectiveness of each treatment by comparison with untreated plants. […] The reported % control values represent the average for all replicates of each treatment.
(§8) Iodosulfuron-methyl-sodium and Nicosulfuron were applied as dilutions of the active ingredient in water.

The subject of a further assay is Galium aparine - GALAP. Nature of the assay: Greenhouse post-emergence herbicide trial, Galium aparine. The settings on record: 200 L/ha, Nicosulfuron 40 g Al/ha.
Description: as §1, §2, §3, §4, §5, §6, §7, §8

A further assay deals with Solanum nigrum - SOLNI. Nature of the assay: Greenhouse post-emergence herbicide trial, Solanum nigrum. Conditions: Iodosulfuron-methyl-sodium 10 g Al/ha.
Description: as §1, §2, §3, §4, §5, §6, §7, §8

In a further assay the test system is Brassica napus - BRSNW. As to the kind of experiment: Greenhouse post-emergence herbicide trial, Brassica napus. Conditions: 200 L/ha, Iodosulfuron-methyl-sodium 10 g Al/ha.
Description: as §1, §2, §3, §4, §5, §6, §7, §8

Another assay relates to Lolium perenne - LOLPE. As to the kind of experiment: Greenhouse post-emergence herbicide trial, Lolium perenne. Conditions: 200 L/ha, Iodosulfuron-methyl-sodium 10 g Al/ha.
Description: as §1, §2, §3, §4, §5, §6, §7, §8

For the compound `COc1cc(OC)nc(NC(=O)NS(=O)(=O)c2ncccc2C(=O)N(C)C)n1` [Nicosulfuron, nicosulfuron, reference compound], the Effectiveness control in the assay on Sectaria Viridis - SETVI (1 DAT) turned out to be 0.00%; in the assay with Sectaria Viridis - SETVI (2 DAT) it was 0.00%; with Sectaria Viridis - SETVI (7 DAT), 5.00%; in the assay with Sectaria Viridis - SETVI (10 DAT), 7.00%; in the assay on Sectaria Viridis - SETVI (16 DAT) it was 10.75%; with Sectaria Viridis - SETVI (22 DAT) it was 7.75%. For the same compound, the Effectiveness control in the assay on Sectaria Viridis - SETVI (28 DAT) came out at 7.00%; with Galium aparine - GALAP (1 DAT), 0.00%; with Galium aparine - GALAP (2 DAT), 0.00%; in the assay on Galium aparine - GALAP (7 DAT), 3.00%; in the assay with Galium aparine - GALAP (10 DAT) it was 10.00%; in the assay with Galium aparine - GALAP (16 DAT), 12.75%. The Effectiveness control with Galium aparine - GALAP (22 DAT) and in the assay with Galium aparine - GALAP (28 DAT) was 12.75% in each case.
Turning to `COC(=O)c1ccc(I)cc1S(=O)(=O)[N-]C(=O)Nc1nc(C)nc(OC)n1.[Na+]` [Iodosulfuron-methyl-sodium, reference compound], the Effectiveness control in the assay on Solanum nigrum - SOLNI (200 L/ha, 1 DAT) worked out at 0.00%; in the assay with Solanum nigrum - SOLNI (200 L/ha, 2 DAT), 0.00%; in the assay on Solanum nigrum - SOLNI (200 L/ha, 7 DAT) it was 0.00%; in the assay with Solanum nigrum - SOLNI (200 L/ha, 15 DAT), 12.50%; with Solanum nigrum - SOLNI (200 L/ha, 21 DAT), 13.75%; in the assay with Solanum nigrum - SOLNI (500 L/ha, 1 DAT) it was 0.00%. Besides, the Effectiveness control with Solanum nigrum - SOLNI (500 L/ha, 2 DAT) was 0.000%; with Solanum nigrum - SOLNI (500 L/ha, 7 DAT), 5.00%; in the assay on Solanum nigrum - SOLNI (500 L/ha, 15 DAT) it was 25.00%; in the assay with Solanum nigrum - SOLNI (500 L/ha, 21 DAT) it was 47.50%; in the assay on Brassica napus - BRSNW (1 DAT), 0.00%; in the assay on Brassica napus - BRSNW (2 DAT), 0.00%. Moreover, the Effectiveness control in the assay with Brassica napus - BRSNW (7 DAT) was 6.75%; in the assay on Brassica napus - BRSNW (10 DAT), 8.50%; in the assay with Brassica napus - BRSNW (16 DAT), 50.75%; in the assay on Brassica napus - BRSNW (22 DAT) it was 99.00%; in the assay with Brassica napus - BRSNW (28 DAT), 99.00%; in the assay with Lolium perenne - LOLPE (1 DAT) it was 0.00%. Moreover, the Effectiveness control with Lolium perenne - LOLPE (2 DAT), with Lolium perenne - LOLPE (7 DAT), with Lolium perenne - LOLPE (10 DAT), in the assay with Lolium perenne - LOLPE (16 DAT), in the assay with Lolium perenne - LOLPE (22 DAT) and in the assay on Lolium perenne - LOLPE (28 DAT) was 0.00% throughout.
